Columns and labels:
Assay in all cases: relative viability (nuclei count vs DMSO), 5 days (fraction); higher = more cells survive
OSI-027 + Palbociclib = compound: COc1cccc2cc(-c3nc([C@H]4CC[C@H](C(=O)O)CC4)n4ncnc(N)c34)[nH]c12 [OSI-027] + CC(=O)c1c(C)c2cnc(Nc3ccc(N4CCNCC4)cn3)nc2n(C2CCCC2)c1=O [Palbociclib] (partner 0.5 µM)
In short: (§1)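 Lung cancer cell lines were pin-tool dosed in 1536-well plates on the day after seeding, with either a lone drug or a fixed anchor-drug dose plus five library-drug doses (not always all listed) in √10 steps. Nuclei were counted on 4× images after 5 days. Relative viability is the ratio of treated-well to vehicle-well nuclei counts, with each value a median of duplicate plates.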

Vemurafenib + Decitabine = compound: CCCS(=O)(=O)Nc1ccc(F)c(C(=O)c2c[nH]c3ncc(-c4ccc(Cl)cc4)cc23)c1F [Vemurafenib] + Nc1ncn([C@H]2C[C@H](O)[C@@H](CO)O2)c(=O)n1 [Decitabine] (partner 2 µM)
In short: as §1

OSI-027 + Trametinib = compound: COc1cccc2cc(-c3nc([C@H]4CC[C@H](C(=O)O)CC4)n4ncnc(N)c34)[nH]c12 [OSI-027] + CC(=O)Nc1cccc(-n2c(=O)n(C3CC3)c(=O)c3c(Nc4ccc(I)cc4F)n(C)c(=O)c(C)c32)c1 [Trametinib] (partner 0.02 µM)
In short: as §1

Alpelisib + Palbociclib = compound: Cc1nc(NC(=O)N2CCC[C@H]2C(N)=O)sc1-c1ccnc(C(C)(C)C(F)(F)F)c1 [Alpelisib] + CC(=O)c1c(C)c2cnc(Nc3ccc(N4CCNCC4)cn3)nc2n(C2CCCC2)c1=O [Palbociclib] (partner 0.5 µM)
In short: as §1

Cell Line	relative viability (OSI-027 + Palbociclib; first compound 0.01 µM)	relative viability (OSI-027 + Palbociclib; first compound 0.03162 µM)	relative viability (OSI-027 + Palbociclib; first compound 0.1 µM)	relative viability (OSI-027 + Palbociclib; first compound 0.3162 µM)	relative viability (OSI-027 + Palbociclib; first compound 1 µM)	relative viability (Vemurafenib + Decitabine; first compound 0.03162 µM)	relative viability (Vemurafenib + Decitabine; first compound 0.1 µM)	relative viability (Vemurafenib + Decitabine; first compound 0.3162 µM)	relative viability (Vemurafenib + Decitabine; first compound 1 µM)	relative viability (OSI-027 + Trametinib; first compound 0.01 µM)	relative viability (OSI-027 + Trametinib; first compound 0.03162 µM)	relative viability (OSI-027 + Trametinib; first compound 0.1 µM)	relative viability (OSI-027 + Trametinib; first compound 0.3162 µM)	relative viability (OSI-027 + Trametinib; first compound 1 µM)	relative viability (Alpelisib + Palbociclib; first compound 0.04 µM)	relative viability (Alpelisib + Palbociclib; first compound 0.1265 µM)	relative viability (Alpelisib + Palbociclib; first compound 0.4 µM)	relative viability (Alpelisib + Palbociclib; first compound 1.265 µM)	relative viability (Alpelisib + Palbociclib; first compound 4 µM)
201T	0.354	0.36	0.342	0.368	0.38	0.821	0.825	0.886	0.799	0.742	0.716	0.717	0.717	0.674	0.374	0.335	0.357	0.315	0.29
A549	–	–	–	–	–	0.163	0.227	0.155	0.224	–	–	–	–	–	–	–	–	–	–
A-427	0.538	0.516	0.453	0.414	0.386	0.553	0.456	–	0.591	0.721	0.747	0.574	0.437	0.329	0.5	0.507	0.521	0.493	0.437
ABC-1	0.828	0.531	0.476	0.444	0.553	1.01	1.13	0.967	0.977	–	–	–	–	–	0.653	0.611	0.732	0.385	0.454
BEN	0.487	0.47	0.425	0.471	0.472	0.577	0.756	0.366	0.675	0.9	0.787	0.709	0.527	0.505	0.485	0.504	0.516	0.439	0.447
CAL-12T	0.427	0.432	0.28	0.313	0.22	–	–	–	–	0.315	0.334	0.336	0.235	0.242	0.413	0.38	0.647	0.415	0.355
COR-L23	0.304	0.3	0.295	0.255	0.171	0.417	0.464	0.336	0.424	0.571	0.639	0.525	0.485	0.254	0.271	0.241	0.253	0.215	0.212
COR-L 105	0.393	0.406	0.369	0.389	0.423	0.556	–	0.645	0.651	0.406	0.396	0.394	0.376	0.459	0.394	0.439	0.414	0.367	0.364
ChaGo-K-1	0.946	0.942	0.904	0.87	0.774	0.548	0.47	0.493	0.512	0.919	0.903	0.833	0.882	0.661	0.958	0.965	1	0.747	0.584
EKVX	0.332	0.44	0.34	0.263	0.22	0.368	–	0.37	0.397	0.413	0.359	0.3	0.293	0.313	0.349	0.325	0.386	0.313	0.242
EMC-BAC-2	0.488	0.499	0.487	0.398	0.348	0.958	0.934	–	0.96	0.857	0.927	0.816	0.797	0.503	0.5	0.481	0.505	0.348	0.324
EPLC-272H	0.332	0.379	0.342	0.316	0.29	0.337	0.367	0.472	0.399	0.293	0.278	0.254	0.236	0.239	0.289	0.333	0.324	0.291	0.267
H3255	0.294	0.309	0.303	0.271	0.321	0.524	–	0.604	0.605	0.527	0.594	0.514	0.476	0.414	0.333	0.321	0.333	0.296	0.264
HARA	0.307	0.272	0.196	0.195	0.165	0.458	0.368	0.673	0.703	0.719	0.616	0.556	0.398	0.386	0.295	0.25	0.257	0.172	0.156
HCC-15	0.689	0.67	0.717	0.591	0.402	0.561	0.64	0.59	0.77	0.317	0.365	0.352	0.283	0.238	0.749	0.702	0.773	0.617	0.551
HCC-44	0.904	0.945	0.955	0.929	0.877	0.869	1.02	0.949	1	1.04	1.07	1.05	0.942	0.795	0.98	0.921	0.988	0.881	0.913
NCI-H596	–	–	–	–	–	0.974	0.959	0.922	0.864	0.738	0.792	0.914	0.758	0.538	–	–	–	–	–
NCI-H2228	0.65	0.638	0.849	0.75	0.383	–	–	–	–	0.409	0.499	0.507	0.326	0.284	0.748	0.519	0.771	0.332	0.355

Reference: the supplement of paper PMC10307832
